Laboratory results: patent US20220202801A1, “USE OF COMPOUND IN PREPARATION OF DRUG FOR TREATING ATHEROSCLEROSIS” (GenEros Biopharma Ltd., priority 2019, published 2022)

Legend:
[1] = Body weight of ApoE knockout mice on high-fat food (Example 1); format: in vivo; details: 20 mg/kg gavage QD
Text: (§1) Methods: SPF grade C57BL/6 ApoE −/−model mice were provided by Guangdong Medical Experimental Animal Center, laboratory animal production license No. SOCK (Guangdong) 2013-0002. Laboratory animal quality certificate number: 44007200048196). Mice were half male and half female, aged 8 to 12 weeks, and 72 animals in total. After four weeks of housing in a SPF-level animal facility, animals with less body weights were disposed. A total of 64 animals were randomly divided into 8 groups, 8 in each group, fed with 10% high-fat food, and received with different treatments. Animals were observed and administered with the medicines by gavage once daily. The body weights were measured once a week and continued for 58 days. […] The test sample was dissolved in dimethyl sulfoxide solution and prepared with 30% PEG300.
Statistical analysis: Data were expressed as the mean plus or minus the standard deviation (x± s), and analyzed by SPSS21.0 statistical software. The weight data of each group were compared by repeated measures analysis of variance; the blood lipid levels of the statin treatment group were compared with the model control group by independent sample T test; the blood lipid levels of the test samples A and B were compared with the model control group by one-way analysis of variance, and LSD method was used for the comparison among groups. The level of test is α=0.05.

ApoE knockout mice [2] = test: Four blood lipids in serum of ApoE knockout mice (Example 1); format: in vivo; details: serum
Text: as §1
At the end of the experiment, animals were anesthetized with pentobarbital sodium. Blood was collected from the orbital venous plexus, and centrifuged at 3000 r/min at a low temperature for 10 min to separate the serum. The levels of total cholesterol TC, triglyceride TG, high-density lipoprotein HDL-C, and low-density lipoprotein LDL-C were measured, and the remaining serum was stored in a refrigerator at −80° C.
Statistical analysis: Data were expressed as the mean plus or minus the standard deviation (x± s), and analyzed by SPSS21.0 statistical software. […] The level of test is α=0.05.

[3] = tested on: atherosclerotic lesions in ApoE knockout mice; test: Aortic HE and oil red O staining, atherosclerotic lesion scores (Example 1); format: in vivo
Text: as §1
(§2) After blood collection, the animals were sacrificed, and the aortic arch together with the heart and thoracic aorta were fixed with neutral formaldehyde and subject to pathological examination. The abdominal aorta was collected and quick-frozen in liquid nitrogen, and stored at −80° C.
a) HE staining: aortic arch was sliced and HE stained. The plaques were observed under optical microscope.
b) Oil red O staining: aortic arch was sliced and oil red O stained. The plaques were observed under optical microscope.

VCAM-1 = test: Immunohistochemistry of aortic wall, VCAM-1; format: in vivo, mice; details: IHC-P×400, single animal micrograph, 20 mg/kg
Text: as §1, §2
(§3) c) Immunohistochemistry: The thoracic aorta was sliced and detected by immunohistochemistry for the expression of CD68, intercellular adhesion molecule-1 (ICAM-1), and vascular cell adhesion Molecule-1 (VCAM-1).

ICAM-1 = test: Immunohistochemistry of aortic wall, ICAM-1; format: in vivo, mice; details: IHC-P×400, single animal micrograph, 20 mg/kg
Text: as §1, §2, §3

CD68 = test: Immunohistochemistry of aortic wall, CD68; format: in vivo, mice; details: IHC-P×400, single animal micrograph, 20 mg/kg
Text: as §1, §2, §3

ApoE knockout mice [4] = test: Blood lipid metabolism TG, TCHO, HDL-c, LDL-c (Example 2); format: in vivo
Text: Methods: A total of 130 SPF grade C57BL/6 ApoE −/− model male mice aged 8 weeks were purchased from Charles River Laboratories (Beijing, China) (animal license number: SCXK (Beijing) 2016-0001, animal qualification certificate No.: 11400700331337). After one week of acclimatization in a SPF-grade animal facility, the animals with less weights were discarded and the rest was randomly divided into 11 groups, with 8 animals in each group. Except for the healthy control group, the rest were fed with 10% high-fat food (the first day of the high-fat diet was recorded as D1). Starting from the 8th week of the high-fat diet, each group of animals was orally given solvents or corresponding drugs, and the volume of administration was 10 ml/kg, once a day for 8 weeks. Animals were observed and administered by gavage once a day and the body weight were measured once a week for 56 days. […] The store solution of the test samples was dissolved in dimethyl sulfoxide solution and prepared with 30% PEG300.
At the end of the experiment, the animals were euthanized by inhalation of carbon dioxide. Blood was taken from the heart, and centrifuged at 3000 r/min at a low temperature centrifuge for 10 min to separate the serum. The levels of total cholesterol TC, triglyceride TG, high-density lipoprotein HDL-C, and low-density lipoprotein LDL-C were measured, and the remaining serum was stored in a refrigerator at −80° C.
Before the start of the experiment, animal blood samples were analyzed for blood lipid metabolism, including conventional triglyceride (TG), total cholesterol (TCHO), high-density lipoprotein (HDL-c) and low-density lipoprotein (LDL-c). After high-fat or ordinary food feeding for 8 weeks, the blood lipid levels were measured again. After the drug treatment was started, blood lipid measurements were performed every four weeks until the end of the experiment.

[5] = half male and female, 20 mg/kg body weight
[6] = ♀, 20 mg/kg gavage QD, 58 days, 20 mg/kg
[7] = ♀, 20 mg/kg gavage QD, 58 days, listed as statin, 20 mg/kg
[8] = ♂, 20 mg/kg gavage QD, 58 days, 20 mg/kg
[9] = ♂, 20 mg/kg gavage QD, 58 days, listed as statin, 20 mg/kg
[10] = of 8 animals, 20 mg/kg body weight

SMILES: CC(C)c1c(C(=O)Nc2ccccc2)c(-c2ccccc2)c(-c2ccc(F)cc2)n1CC[C@@H](O)C[C@@H](O)CC(=O)[O-].CC(C)c1c(C(=O)Nc2ccccc2)c(-c2ccccc2)c(-c2ccc(F)cc2)n1CC[C@@H](O)C[C@@H](O)CC(=O)[O-].[Ca+2] [Statin, Atorvastatin calcium, reference compound]
- body weight ([1]; d1, half male and female): 25.1 ± 4.2 g
- body weight ([1]; d1, ♀): 21.2 ± 0.9 g
- body weight ([1]; d1, ♂): 28.9 ± 1.2 g
- body weight ([1]; d8, half male and female): 25.4 ± 3.8 g
- body weight ([1]; d8, ♀): 22.0 ± 0.6 g
- body weight ([1]; d8, ♂): 28.9 ± 0.9 g
- body weight ([1]; d15, half male and female): 25.3 ± 4.1 g
- body weight ([1]; d15, ♀): 21.5 ± 0.7 g
- body weight ([1]; d15, ♂): 29.0 ± 1.1 g
- body weight ([1]; d22, half male and female): 25.2 ± 4.2 g
- body weight ([1]; d22, ♀): 21.4 ± 0.6 g
- body weight ([1]; d22, ♂): 29.0 ± 1.4 g
- body weight ([1]; d29, half male and female): 25.2 ± 4.2 g
- body weight ([1]; d29, ♀): 21.4 ± 0.6 g
- body weight ([1]; d29, ♂): 29.1 ± 1.2 g
- body weight ([1]; d36, half male and female): 25.7 ± 3.8 g
- body weight ([1]; d36, ♀): 22.2 ± 0.9 g
- body weight ([1]; d36, ♂): 29.2 ± 1.0 g
- body weight ([1]; d43, half male and female): 26.0 ± 3.9 g
- body weight ([1]; d43, ♀): 22.4 ± 0.5 g
- body weight ([1]; d43, ♂): 29.6 ± 0.8 g
- body weight ([1]; d50, half male and female): 26.5 ± 3.7 g
- body weight ([1]; d50, ♀): 23.1 ± 0.9 g
- body weight ([1]; d50, ♂): 29.8 ± 0.6 g
- body weight ([1]; d57, half male and female): 26.4 ± 4.1 g
- body weight ([1]; d57, ♀): 22.7 ± 0.8 g
- body weight ([1]; d57, ♂): 30.0 ± 1.6 g
- body weight ([1]; d58, half male and female): 26.2 ± 3.8 g
- body weight ([1]; d58, ♀): 22.8 ± 0.5 g
- body weight ([1]; d58, ♂): 29.7 ± 1.4 g
- LDL-C (ApoE knockout mice [2]; [5]): 5.60 ± 1.19 mmol/L
- TC (ApoE knockout mice [2]; [5]): 18.15 ± 2.38 mmol/L
- TG (ApoE knockout mice [2]; half male and female, 20 mg/kg body weight, 20 mg/kg): 0.71 ± 0.19 mmol/L
- TG (ApoE knockout mice [2]; half male and female, 20 mg/kg body weight, listed as statin, 20 mg/kg): lower
- LDL-C (ApoE knockout mice [2]; ♀, 20 mg/kg gavage QD, 58 days): 5.03 ± 0.57 mmol/L
- HDL-C (ApoE knockout mice [2]; [6]): 1.44 ± 0.09 mmol/L
- TC (ApoE knockout mice [2]; [6]): 16.85 ± 1.76 mmol/L
- TG (ApoE knockout mice [2]; [6]): 0.65 ± 0.06 mmol/L
- HDL-C (ApoE knockout mice [2]; [7]): reduced to varying degrees, but there was no statistical difference
- TC (ApoE knockout mice [2]; [7]): reduced to varying degrees, but there was no statistical difference
- TG (ApoE knockout mice [2]; [7]): reduced to varying degrees, but there was no statistical difference
- LDL-C (ApoE knockout mice [2]; ♂, 20 mg/kg gavage QD, 58 days): 6.17 ± 1.46 mmol/L
- HDL-C (ApoE knockout mice [2]; [8]): 1.92 ± 0.62 mmol/L
- TC (ApoE knockout mice [2]; [8]): 19.45 ± 2.37 mmol/L
- TG (ApoE knockout mice [2]; [8]): 0.78 ± 0.27 mmol/L
- HDL-C (ApoE knockout mice [2]; [9]): lower
- TC (ApoE knockout mice [2]; [9]): lower
- TG (ApoE knockout mice [2]; [9]): lower
- Mild n (number of animal cases with mild lesions) [3, 10]: 0
- Moderate n (number of animal cases with moderate lesions) [3, 10]: 3
- No lesion n (number of animal cases) [3, 10]: 3
- Severe n (number of animal cases with severe lesions) [3, 10]: 2
- animals that had atherosclerosis (histological observation) ([3]; of 8 aortas examined, 20 mg/kg): 5 cases
- Scores (atherosclerotic lesion score, average of the group) ([3]; score 0-3 per Table 8, 20 mg/kg body weight): 1.50 ± 1.31
- aorta (VCAM-1) signal expression in blood vessels (VCAM-1): low to medium
- aorta (ICAM-1) signal expression in blood vessels (ICAM-1): low to medium
- aorta (CD68) signal expression in blood vessels (CD68): low to medium
- effect on total cholesterol (TCHO) level compared with the vehicle group (ApoE knockout mice [4]): reduce
- effect on triglyceride (TG) level compared with the vehicle group (ApoE knockout mice [4]): increase
